The values below come from patent publication US20130316349A1, “N-METHYLPURINE DNA GLYCOSYLASE AND POLYMERASE BETA AS BIOMARKERS FOR ALKYLATOR CHEMOTHERAPY POTENTIATION” (University of Pittsburgh - Of the Commonwealth System of …, priority 2010, published 2013).

pIC50: −log10 of the molar value. “Also recorded” adds a separate entry of the source.

The subject of one data set is PARG mRNA. Kind of data set: qRT-PCR of PARG mRNA in LN428/MPG cells stably expressing shRNA. It counts as cell-based. Particulars: LN428/MPG cells stably expressing each shRNA. Here is the method: Human WT MPG, mutant MPG (N169D), WT Flag Polβ and Flag Pol β (K72A) expressing cell lines were developed by transfecting cells with corresponding plasmids using FuGene™ 6 Transfection Reagent (Roche, Indianapolis, Ind.) according to the manufacturer's protocol. Transfected cells were cultured in G418 and/or Puromycin for 2 weeks and individual clones stably expressing human MPG or Pol β were selected. Lentiviral particles were generated by co-transfection of 4 plasmids, pLKO.1-puro-TurboGFP (control, expresses GFP) or pCMV-tGFP-PARG (PARG shRNA, co-expresses PARG shRNA and GFP) together with pMD2.g(VSVG), pVSV-REV and PMDLg/pRRE, into 293-FT cells (Zufferey et al., J. Virol., 72:9873-9880, 1998; Zufferey et al., Nat. Biotechnol., 15:871-875, 1997) using FuGene™ 6 Transfection Reagent (Roche, Indianapolis, Ind.), as described previously (Tang et al., Mol. Cancer Res. 8(1):67-79, 2010). […] Cells expressing copGFP only or both copGFP and PARG specific shRNA were isolated by fluorescence activated cell sorting (FACS).
Expression of MPG, Polβ and PARP1 in the cell lines was measured by quantitative RT-PCR using an Applied Biosystems StepOnePlus™ system as described previously (Tang et al., Mol Cancer Res 8:67-79, 2010). […] Each sample was analyzed in triplicate and the results are an average of all three analyses. […]

The subject of data set [1] is degradation of PAR (PARG). Kind of data set: Immunoblot for PAR after TMZ exposure in LN428/MPG cells. It counts as cell-based. The conditions noted are these: 1.5 mM TMZ. Here is the method:
Twenty microgram of protein was loaded on a precast 4-20% NuPAGE™ Tris-Glycine gel (Invitrogen, Carlsbad, Calif.). For whole cell extracts used in probing Poly(ADP-ribose) (PAR), 3×10^6 cells were seeded into a 100 mm cell culture dish 24 hours before drug treatment. Cells were then treated with TMZ (1.5 mM) or DMSO (control) for different periods of time. After treatment, cells were washed twice with cold PBS, collected and lysed in 400 μL of 2×Laemmli buffer (2% SDS, 20% Glycerol, 62.5 mM Tris-HCl pH6.8, 0.01% Bromophenol Blue). Samples were boiled for 8 minutes and extracts from approximately 1.5×10^5 cells were loaded each lane on a 4-12% pre-cast NuPAGE™ Tris-Glycine gel (Invitrogen, Carlsbad, Calif.) for immunoblot analysis. The following primary antibodies were used in immunoblot assays: anti-human MPG (Mab; clone 506-3D) (Trivedi et al., Mol. Pharmacol, 2008); anti-Polβ (Mab clone 61; Thermo Fisher Scientific); anti-APE1 (EMD Biosciences); anti-PCNA (Santa Cruz); anti-poly(ADP-ribose) (PAR) (Clone 10H); anti-MGMT (Novus, Littleton, Colo.).

The test system of a further data set is T98G/MPG cells. The data set can be described thus: Long-term cell survival assay (10 days). The conditions noted are these: for ABT-888-induced potentiation of TMZ: T98G/MPG vs T98G, 50 and 100 μM TMZ, p<0.05 and p<0.01.
Another data set relates to T98G cells. The data set can be described thus: Long-term cell survival assay (10 days). The class given is cell-based. The conditions noted are these: 50 and 100 μM TMZ.
In data set [2] the test system is T98G/MPG/Polβ KD cells. The data set can be described thus: Long-term cell survival assay (10 days).
Procedure: (§1) Results were calculated from the average of three or four separate experiments and are reported as the percentage of treated cells relative to the cells without treatment (% control).
In data set [3] the test system is T98G/MPG/Polβ KD cells.
Procedure: as §1
Another data set concerns PARP. Particulars: PJ34 at 2 μM; cited from earlier work.
In a further data set the test system is LN428/MGMT cells. Kind of data set: Long-term cell survival assay (10 days). The conditions noted are these: pre- (4 μM) and co-treatment with PJ34 (2 μM). The class given is cell-based.
The test system of the next data set is LN428/MGMT/MPG cells. Kind of data set: Long-term cell survival assay (10 days). The class given is cell-based. The conditions noted are these: pre- (4 μM) and co-treatment with PJ34 (2 μM); LN428/MGMT/MPG vs LN428/MGMT.
The subject of data set [4] is LN428/MPG/Flag-APE1 cells. The data set can be described thus: Short-term cell survival assay (48 hours MTS assay). The class given is cell-based. Particulars: APE1 over-expressed in LN428/MPG. (In general: Tetrazolium dyes change colour on reduction, which living cells bring about.)
Procedure: as §1
Data set [5] concerns LN428/MPG cells (MPG over-expressing). The data set is described as above. The class given is cell-based. The conditions noted are these: MX 60 mM 30 min, then TMZ with MX 30 mM 48 hours; LN428/MPG vs LN428.
Procedure: as §1
In a further data set the test system is LN428 cells. Described as above. It counts as cell-based. The conditions noted are these: MX 60 mM 30 min, then TMZ with MX 30 mM 48 hours.
Data set [6] relates to LN428/MPG/Flag-Polβ-WT cells. The description is as above. It counts as cell-based. Particulars: WT Polβ over-expressed in LN428/MPG.
Procedure: as §1
Data set [7] deals with LN428/MPG/Flag-Pol β-K72A cells. Described as above. Particulars: 5′ dRP lyase null mutant Polβ (K72A) over-expressed in LN428/MPG. It counts as cell-based.
Procedure: as §1
In data set [8] the test system is LN428 cells over-expressing mutant MPG (N169D). The data set is described as above. The class given is cell-based. The conditions noted are these: glycosylase dead mutant MPG (N169D) over-expressed in LN428.
Procedure: as §1

Procedure for LN428/MGMT cells: as §1
Procedure for LN428/MGMT/MPG cells: as §1
Procedure for T98G cells: as §1
Procedure for T98G/MPG cells: as §1

“PARG shRNA #2: MISSION TRC shRNA targeting PARG, SEQ ID NO: 10 (CCGGCGATTGCATGTCACTTACGAACTCGAGTTCGTAAGTGACATGCAATCGTTTTTG)”: the “level of PARG mRNA (rank among five shRNA constructs)” value in the data set on PARG mRNA is on record as “second lowest”. The “degradation of PAR following exposure to TMZ” value in data set [1] is listed as “greatly decreased the degradation of PAR”.

As to “PARG shRNA #4: MISSION TRC shRNA targeting PARG, SEQ ID NO: 12; used for PARG KD (CCGGGCTGAGCGAGATGTGGTTTATCTCGAGATAAACCACATCTCGCTCAGCTTTTTG)”, the “level of PARG mRNA (rank among five shRNA constructs)” value in the data set with PARG mRNA is listed as “lowest”. For the same compound, in [1], the “degradation of PAR following exposure to TMZ” value is on record as “greatly decreased the degradation of PAR”.

Take `C[C@]1(c2nc3c(C(N)=O)cccc3[nH]2)CCCN1` [ABT-888]: the “cells killed by ABT-888 treatment alone” value in the data set on T98G/MPG cells (T98G/MPG cells, no TMZ) is reported as about 30%; with T98G/MPG/Polβ KD cells [2] (T98G/MPG/Polβ KD cells, no TMZ) it was “about 70%”. Further, the “ABT-888-induced potentiation of TMZ” value is given as “significantly increased the potentiation induced by ABT-888” in the data set on T98G/MPG cells, “significantly increased A8T-888-induced potentiation of TMZ” with T98G/MPG cells (listed as A8T-888) and “sensitized T98G cells to TMZ” in the data set on T98G cells. Also, in the data set with T98G/MPG/Polβ KD cells [2] (T98G/MPG/Polβ KD, 25 and 50 μM TMZ, p<0.01), the “ABT-888-induced potentiation of TMZ (cytotoxicity of TMZ and ABT-888 vs TMZ alone)” value is listed as “significantly increased ABT-888-induced potentiation of TMZ; also recorded: significantly increased cytotoxicity compared to TMZ treatment alone”.

Compound `Cn1nnc2c(C(N)=O)ncn2c1=O` [TMZ, 3-methyl-2-oxo-1,3,4,5,8-pentazabicyclo[4.3.0]nona-4,6,8-triene-7-carbooxamide] had a pIC50 in the data set with T98G/MPG/Polβ KD cells [3] of over 4.60.

For `CN(C)CC(=O)Nc1ccc2[nH]c(=O)c3ccccc3c2c1` [PJ34], the “level of PARP activation following exposure to TMZ” value in the data set with PARP is recorded as “significantly reduced the level of PARP activation”. The results for the “PJ34-induced potentiation of TMZ” value with LN428/MGMT cells and with LN428/MGMT/MPG cells were “sensitized cells to TMZ” and “substantially increased PJ34-induced potentiation of TMZ; also recorded: much higher in the MPG over expressing cells”, respectively.

Consider `CON` [MX, Methoxyamine], for which the “MX-induced potentiation of TMZ” value in data set [4] is “did not alter the potentiation of TMZ induced by MX”; in data set [5] it was “dramatically increases MX-induced potentiation of TMZ; also recorded: much higher in the MPG over-expressing cells”; in the data set on LN428 cells, “sensitized both cell lines to TMZ”; in data set [6], “dramatically reduced the potentiation induced by MX”; in [7], “did not affect MX-induced potentiation of TMZ”; in data set [8] it was “did not sensitize LN428 cells to a combined treatment of MX and TMZ”.

By pIC50 is commonly meant the IC50 on a negative log10 scale, so that one unit is a factor of ten.
